From PMC8272242 (Molecules, 2021)

Assay: thermal stability during DSC measurements (FTIR-ATR and weight before and after)
Assay type: physicochemical
Conditions: across the range of temperatures used in the DSC study (solid and melt)
Procedure: No polymorphs or solvates have so far been reported. However, in order to confirm that no crystal phase or pseudo-polymorphic transitions occurred during solubility measurements, the sediments collected after flask-shake experiments were analyzed using DSC and FTIR-ATR techniques. The results of these measurements are summarized in supplementary materials in Figures S1 and S2. The solvate formation can be identified by the absorption band shifts on the IR spectra. With DSC thermograms, the formation of a new crystal form would be associated with polymorphic transformations or solvate degradation found prior to the melting peak. Both IR spectra and DSC thermograms recorded for sediments were similar to pure phenacetin. […] As documented in Figure 1, both spectra are nearly identical as indicated by the differential plot.
It is notable that the temperature trends are linear, and it is reasonable to expect that a change of heat capacity values associated with melting ∆Cp would adopt a linear temperature relationship.
The calibration was performed using zinc and indium standards.

With `CCOc1ccc(NC(C)=O)cc1` [phenacetin, N-(4-ethoxyphenyl)acetamide] as the molecule, how does the thermal stability read?
The thermal stability was “stable”.
